Experimental data published in patent US20220204491A1, “FXR (NR1H4) MODULATING COMPOUNDS” (Gilead Sciences, Inc., priority 2019, published 2022).
Where two headings read alike, the source gives them in different places.

Test: Drug concentration in plasma of cynomolgus monkey (LC/MS/MS)
Format: in vivo
Conditions: male cynomolgus monkey, read-out: GS-AUClast
Description: Oral solution doses of Formula (I) (Example 1) were formulated at concentrations of 1 mg/mL in aqueous suspensions of 1% sodium laurel sulfate (SLS), 1% ethanol, and 98% water at pH 2. Oral suspension doses of Comparative Example 1, and Comparative Example 2 were formulated at concentrations of 2.5 mg/mL in 1% hydyroxypropyl methylcellulose (HPMC), 0.5% Tween 80, and 98.5% water.
Intravenous doses of compounds of Formula (I) (Example 1), Comparative Example 1, and Comparative Example 2 were formulated at concentrations of 0.5 mg/mL in a vehicle including 5% DMSO, 15% NMP, 60% PEG 300 and water with 1.1 equivalents of NaOH.
Each dosing group consisted of three to six male Cynomolgus monkeys. At dosing, the animals weighed between 2.4 and 4.4 kg.
The oral test articles were administered to the monkeys via oral gavage at 2 mL/kg or nasogastric untubation at 5 mL/kg for a dose of 5 mg/kg. The intravenous test articles were administered as an approximately 30-minute infusion via an indwelling catheter in a saphenous or cephalic vein at approximately 2 mL/kg for a dose of 1 mg/kg.
Venous blood samples were taken at specified time points after dosing from each animal. The blood samples were collected and transferred into tubes containing potassium (K2) EDTA anticoagulant.
For analysis on an API 5000 LC/MS/MS system, an aliquot of 50 μL of each plasma sample was treated with 200 μL of acetonitrile (ACN) containing internal standard. The above solution was centrifuged at 5000 RPM for 10 minutes and 50 μL of supernatant was transferred to a clean 96-well plate, followed by the addition of 200 μL of water. An aliquot of 10 μL was injected to the API 5000 LC/MS/MS system.
For analysis on an Applied Biosystems API 5500 LC/MS/MS system, an aliquot of 20 μL of each plasma sample was treated with 120 μL acetonitrile (ACN) containing internal standard. The above solution was centrifuged and 100 μL of supernatant was transferred to a clean 96-well plate, followed by the addition of 100 μL of water. An aliquot of 7-10 μL was injected to the API 5500 LC/MS/MS system.
A Zorbax Extend C18 HPLC column (50×2.1 mm, 3.5 μm) from Agilent Technologies (Part #735700-902) (Comparative Example 1, and Comparative Example 2) or a Waters BEH C18 column (50×2.1 mm, 1.7 μm) (Example 1) was used. For the Zorbax Extend C18 HPLC column, mobile phase A contained an aqueous solution of 1% acetonitrile in 10 mM ammonium formate adjusted to pH 3.0 with formic acid and mobile phase B contained and 10% 10 mM ammonium formate in acetonitrile adjusted to pH 4.6 with formic acid. For the Waters BEH C18 column, mobile phase A contained 95% water, 5% acetonitrile, and 0.1% formic acid and mobile phase B contained 50% methanol, 50% acetonitrile, and 0.1% formic acid. A Thermo Aria multiplexer with two identical Agilent 1200 series binary pumps (P/N G1312A Bin Pump) was used for elution and separation. The elution programs used are set forth in the following Table 2 for the Zorbax Extend C18 HPLC and Table 3 for the Waters BEH C18 column.
An API 5000 triple quadrupole mass spectrometer from AB Sciex, Foster City, Calif. was used in multiple reaction monitoring mode to quantify the compounds.
Activation of the Farnesoid X receptor in the distal small intestine as well as systemically in organs such as the liver, directly causes the expression and secretion of FGF19. Plasma FGF levels were evaluated as a pharmacodynamics marker of FXR activation in male cynomolgus monkeys following administration of oral and intravenous administration of doses of Example 1, Comparative Example 1, or Comparative Example 2. The difference between levels of FGF19 following oral administration (PO) versus intravenous administration (IV) were used to compare the degree of intestinal FXR agonism (via analysis of PO data) and systemic FXR agonism (via analysis of IV data) for each compound administered. […]

Row | AUC(0-t) (IV infusion, 1 mg/kg) | AUC(0-t) (PO, 5 mg/kg) | SMILES
1 | 1.63 µM·h | 1.67 µM·h | O=C(O)c1cnc(N2CC(O)(c3ccc(OCc4c(-c5c(Cl)cc(F)cc5Cl)noc4C4CC4)cc3Cl)C2)c(F)c1 [Comparative Example 1, 6-(3-(2-chloro-4-((5-cyclopropyl-3-(2,6-dichloro-4-fluorophenyl)isoxazol-4-yl)methoxy)phenyl)-3-hydroxyazetidin-1-yl)-5-fluoronicotinic acid]
2 | 3.14 µM·h | 0.643 µM·h | O=C(O)c1ccc(N2CC(O)(c3ccc(OCc4c(-c5c(Cl)cccc5Cl)noc4C4CC4)cc3Cl)C2)nc1 [Comparative Example 2]
3 | 3.15 µM·h | 2.25 µM·h | O=C(O)c1ccc(N2CC(O)(c3ccc(OCc4c(-c5c(Cl)cc(F)cc5Cl)noc4C4CC4)cc3Cl)C2)nc1 [Example 1, 6-(3-(2-chloro-4-((5-cyclopropyl-3-(2,6-dichloro-4-fluorophenyl)isoxazol-4-yl)methoxy)phenyl)-3-hydroxyazetidin-1-yl)nicotinic acid]
